According to US20240238422A1 (Osprey Biopharmaceuticals, Inc., priority 2021, published 2024):
Entries after “also recorded” stand apart in the source; their conditions may differ.

Tests used:
[1] = molecular target: Human TNFα (Homo sapiens, UniProt P01375); assay: TNFα - Adalimumab/Adalimumab-Siglec Ligand Conjugate SPR Binding Assays; details: TNFα analyte, test article on Protein A chip, 1:1 binding model
Experimental: Binding experiments of Adalimumab Conjugates were performed on a Biacore 8K+ using a Cytiva Protein A Chip Series S (Cat #29127555). Briefly, conjugates were diluted in running buffer (HBS-EP+) and scouted for a concentration yielding about 30 RU of response after 20 seconds of injection at 30 μL/min on the active surface (flow cell 2). Human TNFα was serially diluted in running buffer 1:1 from 100 nM to 0.1953 nM and then injected across both the reference (flow cell 1) and active surface (flow cell 2) for 120 seconds at 30 μL/min and allowed to dissociate for 600 s. […] Sensorgrams were fitted to a 1:1 binding model in Biacore Insight Evaluation Software Version 3.0.11.15423.

[2] = test system: C57BL/6 mice; assay: Anti-drug antibody (serum IgG titer) response to adalimumab and conjugates in mice; type: in vivo, mouse
Experimental: To evaluate the production of antibodies specific to adalimumab and/or adalimumab-Siglec Ligand conjugates, C57BL/6 mice were immunized through intravenous injection with adalimumab or Siglec Ligand-conjugated adalimumab. On study day −1, animals were randomized into treatment groups based on body weight. On study day 0, animals were bled for baseline serum and then injected IV with adalimumab or the adalimumab-Siglec Ligand conjugates. The individual antigens were prepared by making a 0.8 mg/ml antigen solution in sterile buffered saline. Animals were then injected with 0.1 ml (^˜4 ml/kg) of the 0.8 mg/ml antigen via the tail vein. The total dose based on a 20 g mouse would be 4 mg/kg. Animals were bled via the retro-orbital sinus weekly throughout the study under inhaled isoflurane anesthesia. On study day, 28 animals were anesthetized with inhaled isoflurane anesthesia and then bled via cardiac puncture and then sacrificed by cervical dislocation. […]
ADA assays were performed on 96-well assay plates (Nunc Plates, Black 96-Well Immuno Plates, Thermo Scientific, 437111) coated with antigen, as follows. […] The excitation and emission settings for the QuantaBlu Fluorogenic Peroxide Substrates are 325 nm and 420 nm and the relative florescence units were measured using a SpectraMax plate reader. […] Titers were determined by the dilution of serum that gives a 2× OD above background. […]

[3] = test system: C57BL/6 mice; assay: Serum IgG response to hen egg white lysozyme (HEL) in mice; type: in vivo, mouse; details: Example 20: 4 weekly 200 μg i.v. doses (days 0, 7, 14, and 21), day 27
Experimental: On study day −1, animals were randomized into treatment groups based on body weight. On study day 0, animals were bled for baseline serum and then injected IV with adalimumab, adalimumab-Siglec Ligand conjugate, or PBS vehicle. The individual adalimumab-based antigens were prepared by making a 0.8 mg/ml antigen solution in sterile buffered saline. Animals were then injected with 0.1 ml (^˜4 ml/kg) of the 0.8 mg/ml antigen via the tail vein. The total dose based on a 20 g mouse would be 4 mg/kg. Mice were subsequently administered 200 μg HEL on days 7, 14, and 21. Whole blood was collected into Microvette EDTA capillary collection tubes (Sarstedt Inc) and then further processed following the manufacturer's instructions for serum collection. Samples were stored at −80 C until analysis was performed.
ADA assays were performed on 96-well assay plates (Nunc Plates, Black 96-Well Immuno Plates, Thermo Scientific, 437111) coated with antigen as follows. […] The excitation and emission settings for the QuantaBlu Fluorogenic Peroxide Substrates are 325 nm and 420 nm and the relative florescence units were measured using a SpectraMax plate reader. […] Titers were determined by the dilution of serum that gives a 2× OD above background.
On study day −1, animals were randomized into treatment groups based on body weight. […] Serum IgG levels against HEL/HEL conjugate were measured at day 27. […]

Human TNFα, sequence (P01375 77-233 limits assumed): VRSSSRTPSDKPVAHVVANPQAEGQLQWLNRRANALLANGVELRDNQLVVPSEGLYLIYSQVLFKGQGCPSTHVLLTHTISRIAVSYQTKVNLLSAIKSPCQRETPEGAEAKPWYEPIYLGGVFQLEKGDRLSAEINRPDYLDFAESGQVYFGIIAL

Kd [1] [nM]	Rmax (RU) [1] [RU]	ka [1] [M⁻¹ s⁻¹]	kd [1] [s⁻¹]	Substance	anti-drug antibody response (mouse serum IgG titer against adalimumab/adalimumab conjugates) ([2]; Example 14: single 4 mg/kg i.v. dose, days 14, 21, and 28, GAL and PEG linkers, listed as adalimumab hIgG1, 4 mg/kg)	IgG response against adalimumab/adalimumab conjugate ([2]; Example 19: 4 mg/kg day 0, then weekly 200 μg HEL, day 28)	IgG response to HEL/HEL conjugate (immunogenicity) [3]
1.46	10.6	245000	0.000357	Adalimumab	highly immunogenic in mice; also recorded: high mouse IgG serum titers	strong IgG response	–
–	–	–	–	HEL: hen egg white lysozyme (Sigma, L4919-1G), standard immunogen [reference compound]	–	–	vigorous IgG responses to HEL
–	–	–	–	Siglec Ligand-HEL conjugates: hen egg white lysozyme conjugated with monovalent BPC-Neu5Gc PEG ligand-linker, LDR of 1.6	–	–	completely suppressed for immunogenicity
